The record followed here is patent US10683486B2, “Methods for producing hepatocytes” (BioLamina AB, priority 2015, dated 2020).

The test system of data set [1] is MAN12 derived hepatocytes. As to the kind of experiment: Protein secretion (ELISA) and CYP p450 activity of MAN12 derived hepatocytes. To be noted: CYP1A2 and CYP3A activity, days 18, 20 and 24. The class given is cell-based, human. The procedure: MAN12 cells, a GMP grade cell line, were plated on three different substrates. The first substrate was Matrigel® (MG), and served as a control. The second substrate was coated with 5 micrograms per square centimeter (μg/cm^2) of laminin-521 (LN-521). […] The cells were then differentiated according to the Cameron protocol.
FIG. 15 is a set of four bar graphs. The first row of two graphs show hepatocyte protein secretion for alpha fetoprotein and albumin as analyzed by ELISA on day 24 of differentiation (n=3). No significant differences were observed across the three matrices. The second row of two graphs show the metabolic function of CYP p450 activity on days 18, 20, and 24 for CYP1A2 and CYP3A activity.
Looking at both Example 4 and Example 5, the MAN11 and MAN12 cells differentiated efficiently on all three substrates, with the majority of cells (>80%) expressing albumin and CYP3A, as detected by immunostaining.

For another data set, the system named is hESC-derived hepatocytes. As to the kind of experiment: Biliary efflux of CDFDA. The class given is cell-based, human. To be noted: 2 μM CDFDA for 30 minutes; versus the MG substrate. The procedure: To determine whether these cells were capable of biliary efflux, cells were treated with 5(6)-carboxy-2′,7′-dichlorofluorescein diacetate (CDFDA), which was metabolised to fluorescent CDF and effluxed by multidrug resistance associated protein 2 (MRP2). hESC-derived hepatocytes were incubated with 2 μM of 5(6)-carboxy-2′,7′dichlorofluorescein diacetate (CDFDA) for 30 minutes. Cultures were then washed with ice-cold PBS containing calcium and magnesium. Cells were either collected for imaging or retained for quantification of efflux. For fluorescent quantification, hepatic maturation was replaced and cells incubated at 37 degrees Celsius for 30 minutes. The efflux of CDFDA from cells into media was measured by fluorescence spectroscopy at […] using a FLUOStar Omega multi-mode microplate reader.
The results are shown in the bottom row (C) of photomicrographs.

The subject of data set [2] is primary human hepatocytes (PHHs). As to the kind of experiment: Primary human hepatocyte metabolism and protein production on the substrates. To be noted: female PHHs, ELISA. The class given is cell-based. As to the method: Cryoplateable human hepatocytes were plated and maintained according to the instructions of vendor Life Technologies. Briefly, cryoplateable hepatocytes were resuscitated in thawing medium (Life Technologies, catalog no. CM3000) and plated onto the pre-coated 96 well plates. Cells-attached to all matrices efficiently and were maintained in an incubator set at 37 degrees Celsius and CO2 levels set to 5%. At 24 hours post-plating, the medium was changed to an incubation medium (catalog no. CM4000).
To determine whether these large changes in metabolic capacity correlated to increased protein production, the production of albumin and alpha fetoprotein (AFP) from hESC-derived and cryoplatable hepatocytes was quantified using commercially available enzyme-linked immunosorbent assay (ELISA) kits. The different media were collected at denoted time points during hESC differentiation, days 20-26. […] Samples were run in triplicate and measured on a FLUOStar Omega multi-mode microplate reader. Protein production was expressed as ng or μg of protein per milliliter of media, per milligram of protein. The results are shown in FIG. 7, where the expression of these two proteins was measured on days 20, 22, 24, and 26 of differentiation. Despite the large changes in metabolic capacity, no significant differences in albumin or AFP secretion was detected by ELISA. […]

“LN-521: substrate coated with 5 μg/cm^2 of laminin-521, the protein formed by joining α5, β2 and γ1 chains”: the “metabolic activity of MAN12 derived hepatocytes” value in data set [1] was “improved metabolic activity”. Besides, the biliary efflux entry with hESC-derived hepatocytes is “more active biliary efflux”. Also, in data set [2], the albumin production entry is listed as “enhanced”.
